Results: publication PMC6687188, “Novel lactate dehydrogenase inhibitors with in vivo efficacy against Cryptosporidium parvum” (PLoS Pathogens, 2019)

target: recombinant CpLDH protein (Cryptosporidium parvum, UniProt Q9GT92, F198L/K295E/R251K); settings: not given

| SMILES | MEAN CpLDH INHIBITION (%) |
| --- | --- |
| C=C1C(=O)C2=CC1CCC(=O)C1(C)CCC(OC(C)=O)C(C)(C)C1CC2O (centres unmarked) [NSC302979] | -1.17% |
| CCC12C[N+]3([O-])CCc4c([nH]c5ccccc45)C(C(=O)OC)(c4cc5c(cc4OC)N(C)C4C(O)(C(=O)OC)C(OC(C)=O)C6(CC)C=CCN7CCC54C76)CC(C3)C1O2 (centres unmarked) [NSC304421] | -126.27% |
| C=C1[C@@H](C)[C@H]2[C@H](Cc3ccccc3)NC(=O)C23[C@H](OC(C)=O)/C=C/[C@@](C)(O)C[C@@H](C)C/C=C/[C@H]3[C@@H]1O (some centres unmarked) [NSC305222] | -217.96% |
| Nc1nc(N)c2cc(Sc3cccc(C(F)(F)F)c3)ccc2n1 [NSC305782] | -11.03% |
| CC(C)(C)NCCC(O)c1cc(C(F)(F)F)nc2c(C(F)(F)F)cccc12.O=P(O)(O)O (centres unmarked) [NSC305819] | -15.30% |
| CC1CCC2(OC1)OC1CC3C4CC=C5CC(OC6OC(CO)C(OC7OC(C)C(OC8OC(C)C(O)C(O)C8O)C(O)C7O)C(O)C6OC6OC(C)C(O)C(O)C6O)CCC5(C)C4CCC3(C)C1C2C (centres unmarked) [NSC306864] | -7.27% |
| O=NN(CCCl)C(=O)NCc1ccc[n+]([O-])c1 [NSC307454] | -54.21% |
| C=C(C)[C@@H]1CCc2c(O)c(O)c(=O)cc(C)c2C1 [NSC310618] | -54.97% |
| CC(=O)[O-].Cc1c2cc[n+](CCN3CCCCC3)cc2c(C)c2c1[nH]c1ccc(O)cc12 [NSC311153] | -30.69% |
| CCP(CC)CC.[Au+].[Cl-] [NSC313981] | -27.27% |
| COc1cc2c3c(n(C)c(=O)c2cc1OC)-c1cc2c(cc1C3=O)OCO2 [NSC314622] | -4.47% |
| O=C1c2ccccc2C(=O)c2c(O)c(NCCNCCO)cc(O)c21 [NSC316157] | -4.71% |
| O=C(N=Nc1c(O)[nH]c2c(Cl)cc(Cl)cc12)c1ccccc1O [NSC320864] | -26.08% |
| COc1ccc2c(c1[N+](=O)[O-])CC[C@@H]1[C@@H]2CC[C@]2(C)C(=O)CC[C@@H]12 [NSC321803] | -29.51% |
| Br.CCCCCC(CN1CCOCC1)C(=O)/C=C/c1ccccc1 (centres unmarked) [NSC322069] | -28.89% |
| C/C(=N\N=C(/[Se])N1CC2CCC(CC2)C1)c1ccccn1 [NSC323241] | -23.75% |
| CCCCS(=N)(=O)CCC(N)C(=O)O (centres unmarked) [NSC326231] | -24.75% |
| Clc1cc2nc[nH]c2cc1Cl [NSC326397] | -5.75% |
| CN(C)c1ccc(/C=N/N=C2\C(=O)Nc3c(Cl)cc(Cl)cc32)cc1 [NSC327697] | -11.09% |
| CC1CCOC(=O)/C=C/C=C/C(=O)OC2CC3OC4C5OC5(C)C(O)CC4(COC(=O)C1O)C2(C)C31CO1 (centres unmarked) [NSC328166] | -4.71% |
| CC(=O)O[C@@H]1[C@@H](O)[C@H](O[C@H]2[C@H](OC(=O)[C@H]3CC[C@H]4[C@@H](C3)O[C@@]3(C[C@H](OC(=O)/C=C/c5ccccc5)[C@H](C)CO3)[C@]43CO3)O[C@H](C)[C@@H](O)[C@@H]2OC(C)=O)O[C@H](C)[C@H]1O [NSC328426] | -30.81% |

| SMILES | MEAN CpLDH INHIBITION (%) |
| --- | --- |
| Cc1c(Cl)cccc1NC(=O)c1cccc([N+](=O)[O-])c1O [NSC328477] | -31.70% |
| CC1(C)CC2=NO[Se]3=C2C(=NO3)C1 [NSC328587] | -53.59% |
| CCOc1cccc(/C=N/N=C2\C(=O)Nc3c(Cl)cc(Cl)cc32)c1O [NSC329277] | -1.09% |
| O=C1Nc2c(Cl)cc(Cl)cc2/C1=N/N=C/c1ccco1 [NSC329279] | -39.07% |
| C=C1C(=O)O[C@H]2/C=C(/C)C(=O)C[C@@H]3OC(C)(C)O[C@@]3(C)C[C@H](OC(=O)/C(C)=C\C)[C@H]12 [NSC329696] | -30.73% |
| COC1CC(C)C(OC)c2cc(O)cc(c2O)NC(=O)/C(C)=C\C=C/C(C)C(OC(N)=O)/C(C)=C\C(C)C1OC (centres unmarked) [NSC330500] | -19.04% |
| COc1cc2c(c(O)c1OC)-c1c(cc(OC)c(OC)c1OC)C[C@@H](C)[C@@H](C)C2 [NSC330515] | -43.86% |
| COc1cc2c(c(OC)c1OC)-c1c(cc3c(c1OC)OCO3)CC(C)C(C)(O)C2OC(=O)c1ccccc1 (centres unmarked) [NSC330516] | -37.93% |
| CC(=O)O[C@H]1C(=O)[C@@]2(C)[C@H]([C@H](OC(=O)c3ccccc3)[C@]3(O)C[C@H](O)C(C)=C1C3(C)C)[C@]1(OC(C)=O)CO[C@@H]1C[C@@H]2O [NSC330753] | -63.01% |
| CCOC(=O)Nc1cc2c(c(N)n1)N=C(c1ccccc1)CN2 [NSC330770] | -9.40% |
| CCN(CC)CCCC(C)NC(=O)c1ccc2c(c1)C(=O)c1ccccc1C2=O.Cl (centres unmarked) [NSC331757] | -61.61% |
| CO[C@@H](/C(C)=C/C=C/C(C)=C/c1coc(C)n1)[C@@H](C)[C@@H]1C[C@H](O)[C@@]2(C)O[C@@H]2/C=C/[C@@H](C)[C@H]2C[C@H](CC(=O)O2)C[C@@H]2O[C@H]2C(=O)O1 [NSC332598] | -143.77% |
| COC(=O)NC1C(C)OC(OC2C/C=C(/C)C3C=CC4C(OC5CC(OC6CCC(OC7CC(O)C(OC8CCC(O)C(C)O8)C(C)O7)C(C)O6)C(OC(C)=O)C(C)O5)C(C)CC(C)C4C3(C)/C(O)=C3/C(=O)OC4(CC(C=O)=CC(O)C4/C=C\2C)C3=O)CC1(C)[N+](=O)[O-] (centres unmarked) [NSC333856] | -2.71% |
| Cc1c2ccnc(C(N)=O)c2c(C)c2c1[nH]c1ccccc12.Cl [NSC335142] | -27.72% |
| O=C1NC(=S)NC(=O)C1C(=O)Nc1ccccc1 [NSC336628] | -66.49% |
| O=C1c2ccccc2-c2c1c1ccccc1c(=O)n2Cc1ccccc1 [NSC337612] | -26.65% |
| C(=N\NC1=NCCN1)/c1c2ccccc2c(/C=N/NC2=NCCN2)c2ccccc12 [NSC337766] | -53.76% |
| CN(C)c1ccc2c(SCC(=O)OCC(=O)[C@@]3(O)CC[C@H]4[C@@H]5CCC6=CC(=O)C=C[C@]6(C)[C@H]5C(=O)C[C@@]43C)c3ccc(N(C)C)cc3nc2c1 [NSC337851] | -16.37% |
| Oc1cc2c3c(c1)c1cc4c(cc1c[n+]3CC2)OCO4.[Cl-] [NSC338259] | -17.29% |
| COc1nc(C(Cl)(Cl)Cl)c(Cl)c(OC)c1Cl [NSC338720] | 0.02% |
| O=C(CCCN1CCC(C(O)c2ccc(F)cc2)CC1)c1ccc(F)cc1 (centres unmarked) [NSC343513] | -0.97% |

| SMILES | MEAN CpLDH INHIBITION (%) |
| --- | --- |
| NP(=O)(Oc1c2occc2cc2ccc(=O)oc12)N(CCCl)CCCl (centres unmarked) [NSC345081] | -64.34% |
| CC1Oc2cc3c(-c4c(O)cc(O)c5c(O)c6c(cc45)OC(C)C(C)C6=O)c(O)cc(O)c3c(O)c2C(=O)C1C (centres unmarked) [NSC345647] | -176.19% |
| O=[Se]([O-])[O-].[Na+].[Na+] [NSC347466] | -3.84% |
| O=C1N[C@@H]2C(=C[C@H](O)[C@@H](O)[C@H]2O)c2cc3c(cc21)OCO3 [NSC349155] | -5.62% |
| O=C1N[C@H]2[C@H](O)[C@H](O)[C@@H](O)[C@H](O)[C@@H]2c2cc3c(c(O)c21)OCO3 [NSC349156] | -36.89% |
| COC1=C(C)C(=O)C2=C(C1=O)C(CO)N1C(C#N)C3CC4C(C1C2N1CCOC41)N3C (centres unmarked) [NSC349644] | -64.47% |
| Cc1ccc(S(=O)(=O)ON=C2CC(c3ccccc3)N(C)C(c3ccccc3)C2)cc1 (centres unmarked) [NSC351306] | -39.05% |
| COc1cc(C(C)c2cc3c(cc2OCCO)OCO3)cc(OC)c1OC (centres unmarked) [NSC352876] | -6.93% |
| Nc1ncnc2c([C@@H]3O[C@H](CO)[C@@H](O)[C@H]3O)c[nH]c12 [NSC352890] | -27.24% |
| CCN(CC)CC.CCOc1ccc(NC(=O)N=C=[N-])cc1.[CH-]1CCCCC1.[CH-]1CCCCC1.[CH-]1CCCCC1.[Cl-].[Sn+4] [NSC353527] | -42.92% |
| C=Cc1cc(OC)c2c(c1)c(=O)oc1c2cc(OC)c2c(O)ccc(C3OC(C)C(O)C(C)(O)C3O)c21 (centres unmarked) [NSC354844] | -68.14% |
| NC(=O)C1=C[C@H]2[C@@H]3C=C[C@@]2(O)C(=O)O[C@@H]3O1 [NSC357683] | -9.72% |
| CCN(CC)Cc1cc(N=Nc2c(O)ccc3c(N=Nc4ccc(O)c(CN(CC)CC)c4)c(O)ccc23)ccc1O.Cl [NSC359463] | -17.14% |
| COC(=O)C1(C)CCCC2(C)C3CCC4CC3(C=C4CO)CCC12 (centres unmarked) [NSC360861] | -29.11% |
| CN1CCN(CN2C(=O)C3C4C=CC(C3C2=O)C2C3C(=O)N(CN5CCN(C)CC5)C(=O)C3C42)CC1 (centres unmarked) [NSC361813] | -202.91% |
| COC(=O)NC1C(C)OC(OC2C/C=C(/C)C3C=CC4C(OC5CC(OC6CC(O)C(OC7CC(O)C(OC)C(C)O7)C(C)O6)C(O)C(C)O5)C(C)CC(C)C4C3(C)/C(O)=C3\C(=O)OC4(CC(C)C(CO)=CC4/C=C\2C)C3=O)CC1(C)[N+](=O)[O-] (centres unmarked) [NSC363182] | -79.07% |
| CC1(C)[C@@H]2CC[C@@]1(CS(=O)(=O)O)C(=O)C2.CN1[C@@H](c2ccccc2)CC(=NO)C[C@H]1c1ccccc1 [NSC363744] | -9.54% |
| Cl.O=C1c2cccc(NCCCNCCO)c2C(=O)c2cccc(NCCCNCCO)c21 [NSC363998] | -2.96% |
| N#CC(=S)Nc1ccc(F)cc1 [NSC369317] | -8.49% |

same assay, conditions: 20 μM compound; 10 mM pyruvate, 1 mM NADH; values below 0 = augmenters

| SMILES | MEAN CpLDH INHIBITION (%) |
| --- | --- |
| C/C(=N\NC(=S)N1CCC1)c1ccccn1 [NSC319726] | -58.85% |
